Measurements from patent US20260125389A1, “MEMBRANE-ASSOCIATED TYROSINE AND THREONINE KINASE INHIBITOR AND USE THEREOF” (HAINAN SIMCERE ZAIMING PHARMACEUTICAL CO., LTD., priority 2022, published 2026).

Molecular target: T1, PKMYT1 (Homo sapiens, UniProt Q99640)
T1 sequence (Q99640 1-499): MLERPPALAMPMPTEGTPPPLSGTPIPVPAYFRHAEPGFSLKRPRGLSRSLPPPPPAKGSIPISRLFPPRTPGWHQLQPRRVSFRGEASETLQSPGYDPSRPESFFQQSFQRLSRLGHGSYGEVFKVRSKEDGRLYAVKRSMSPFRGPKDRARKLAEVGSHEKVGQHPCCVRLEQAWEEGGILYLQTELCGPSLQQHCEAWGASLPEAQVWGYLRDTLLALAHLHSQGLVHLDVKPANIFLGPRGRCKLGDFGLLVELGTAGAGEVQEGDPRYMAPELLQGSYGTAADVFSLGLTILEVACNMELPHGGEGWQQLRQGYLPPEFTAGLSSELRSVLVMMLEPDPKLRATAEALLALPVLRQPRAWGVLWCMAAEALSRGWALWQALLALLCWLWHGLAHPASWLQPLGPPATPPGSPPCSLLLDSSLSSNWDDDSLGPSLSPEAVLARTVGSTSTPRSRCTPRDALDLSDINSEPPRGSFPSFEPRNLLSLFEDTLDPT
Assay: Inhibition assay for PKMYT1 enzyme activity (ADP-Glo)
Format: biochemical
Conditions: MYT1 2 ng/μL, ATP 25 μM, substrate CDK1 20 ng/μL, 40 min reaction, read-out: IC50 values of compounds for PKMYT1 inhibition activity
Description: Experimental principle: After co-incubation of PKMYT1 with the compound, the substrate CDK1 was phosphorylated under the action of ATP. ADP produced by the reaction was quantified using an ADP-Glo™ assay kit from Promega to reflect the enzyme activity.
Experimental method: Using the Echo liquid handler, the test compound was diluted to different concentrations in dimethyl sulfoxide (DMSO) and transferred to a 384-well plate. Thus, the final concentration of the compound in the reaction system started at 1 μM and was subjected to a 3-fold serial dilution, with the final DMSO concentration maintained at 1%. 50 nL/well of the test compound solution was added. 3 μL/well of MYT1 diluted with Kinase Dilution Buffer was then added. […] After incubation for 30 min, the fluorescence signal values were measured using an Envision microplate reader.
The % compound inhibition was calculated and fitted using XLfit software to obtain the IC50 value of the compound. […]
Herein, the experimental well, blank well, and DMSO group refer to the fluorescence signal values recorded from the experimental group, blank group, and DMSO group, respectively.
The inhibitory activity of the compounds of the present application on PKMYT1 was determined by the above assay, and the IC50 values obtained are as shown in Table 1.

IC50 [nM]	SMILES
8.8	Cc1ccc(O)c(C)c1-n1c(N)c2c3c(ncnc31)-c1ccccc1NC2=O [Compound 1, 5-amino-4-(3-hydroxy-2,6-dimethylphenyl)-4,7-dihydro-6H-1,3,4,7-tetraazadibenzo[cd,f]azulen-6-one]
5.7	Cc1nc2c3c(c(N)n(-c4c(C)ccc(O)c4C)c3n1)C(=O)Nc1ccccc1-2 [Compound 2, 5-amino-4-(3-hydroxy-2,6-dimethylphenyl)-2-methyl-4,7-dihydro-6H-1,3,4,7-tetraazadibenzo[cd,f]azulen-6-one]

Tested on: HCC1569 cells
Assay: Inhibition of tumor cell proliferation (CTG, HCC1569)
Format: cell-based
Conditions: Homo sapiens, 168 h, 7 days incubation, CTG readout, read-out: IC50 of compounds for inhibition of HCC1569 cell growth
Description: Experimental principle: The compound was incubated with tumor cells for 7 days, and ATP in viable cells was quantified using the CTG kit from Promega to evaluate the effect of the compound on tumor cell proliferation.
Experimental method: The cultured cells were resuspended after being rinsed with PBS (for adherent cells) and digested with 0.25% Trypsin-EDTA, followed by cell counting to determine cell density and viability. 3000 HCC1569 cells/well were diluted with RPMI Medium 1640 containing 10% FBS, added to a 96-well plate (90 μL/well), and cultured in an incubator at 37° C. with 5% CO2 for 24 h. The test compound was diluted to different concentrations in dimethyl sulfoxide (DMSO) and added to a 96-well plate. Thus, the final concentration of the compound in the reaction system started at 25 μM and was subjected to a 4-fold serial dilution, with the final DMSO concentration maintained at 0.25%. The compound and cells were further incubated at 37° C. with 5% CO2 for 7 days. 50 μL/well of CTG was then added to measure the inhibitory effect of the compound on tumor cell growth, and the inhibition rate and half-maximal inhibitory concentration (IC50) were calculated.
The % compound inhibition was calculated and fitted using XLfit software to obtain the IC50 of the compound.
Blank wells and DMSO wells were set up. The blank well contained 100 μL of RPMI Medium 1640 with 10% FBS, where the inhibition rate of the compound on tumor cell growth was considered 100%. The DMSO well contained 0.25% DMSO added to the cell well, where the inhibition rate of the compound on tumor cell growth was considered 0%.

IC50 [nM]	SMILES
42	Cc1ccc(O)c(C)c1-n1c(N)c2c3c(ncnc31)-c1ccccc1NC2=O [Compound 1, 5-amino-4-(3-hydroxy-2,6-dimethylphenyl)-4,7-dihydro-6H-1,3,4,7-tetraazadibenzo[cd,f]azulen-6-one]
22	Cc1nc2c3c(c(N)n(-c4c(C)ccc(O)c4C)c3n1)C(=O)Nc1ccccc1-2 [Compound 2, 5-amino-4-(3-hydroxy-2,6-dimethylphenyl)-2-methyl-4,7-dihydro-6H-1,3,4,7-tetraazadibenzo[cd,f]azulen-6-one]
254	Cc1nc2c3c(c(N)n(-c4c(C)ccc(O)c4C)c3n1)C(=O)Nc1nn(CC(F)(F)F)cc1-2 [Compound 14, 2-amino-1-(3-hydroxy-2,6-dimethylphenyl)-9-methyl-6-(2,2,2-trifluoroethyl)-4,6-dihydro-1,4,5,6,8,10-hexaazabenzo[cd]cyclopenta[f]azulen-3(1H)-one]
240	Cc1nc2c3c(c(N)n(-c4c(C)ccc(O)c4C)c3n1)C(=O)NCc1ncccc1-2 [Compound 4, 2-amino-1-(3-hydroxy-2,6-dimethylphenyl)-11-methyl-4,5-dihydro-1,4,6,10,12-pentaazabenzo[4,5]cyclooctatetraeno[1,2,3-cd]inden-3(1H)-one]
562	Cc1nc2c3c(c(N)n(-c4c(C)ccc(O)c4C)c3n1)C(=O)NCc1nc(C(F)(F)F)ccc1-2 [Compound 29, 2-amino-1-(3-hydroxy-2,6-dimethylphenyl)-11-methyl-7-(trifluoromethyl)-4,5-dihydro-1,4,6,10,12-pentaazabenzo[4,5]cyclooctatetraeno[1,2,3-cd]inden-3(1H)-one]
539	Cc1nc2c3c(c(N)n(-c4c(C)ccc(O)c4C)c3n1)C(=O)NCc1cnccc1-2 [Compound 5, 2-amino-1-(3-hydroxy-2,6-dimethylphenyl)-11-methyl-4,5-dihydro-1,4,7,10,12-pentaazabenzo[4,5]cyclooctatetraeno[1,2,3-cd]inden-3(1H)-one]
768	Cc1nc2c3c(c(N)n(-c4c(C)ccc(O)c4C)c3n1)C(=O)NCc1nn(C)cc1-2 [Compound 8, 2-amino-1-(3-hydroxy-2,6-dimethylphenyl)-7,10-dimethyl-1,4,5,7-tetrahydro-3H-1,4,6,7,9,11-hexaazacyclopenta[4,5]cyclooctatetraeno[1,2,3-cd]inden-3-one]
291	COCCn1ncc2c1NC(=O)c1c(N)n(-c3c(C)ccc(O)c3C)c3nc(C)nc-2c13 [Compound 43, 5-amino-4-(3-hydroxy-2,6-dimethylphenyl)-8-(2-methoxyethyl)-2-methyl-7,8-dihydro-1,3,4,7,8,9-hexaazabenzo[cd]cyclopenta[f]azulen-6(4H)-one]
20.9	Cc1nc2c3c(c(N)n(-c4c(C)ccc(O)c4C)c3n1)C(=O)NCc1c-2ccc(F)c1C#N [Compound 49, 2-amino-7-fluoro-1-(3-hydroxy-2,6-dimethylphenyl)-11-methyl-3-oxo-1,3,4,5-tetrahydro-1,4,10,12-tetraazabenzo[4,5]cyclooctatetraeno[1,2,3-cd]inden-6-carbonitrile]
24.9	COc1nccc2c1CNC(=O)c1c(N)n(-c3c(C)ccc(O)c3C)c3nc(C)nc-2c13 [Compound 23, 2-amino-1-(3-hydroxy-2,6-dimethylphenyl)-6-methoxy-11-methyl-4,5-dihydro-1,4,7,10,12-pentaazabenzo[4,5]cyclooctatetraeno[1,2,3-cd]inden-3(1H)-one]
33.8	Cc1nc2c3c(c(N)n(-c4c(C)ccc(O)c4C)c3n1)C(=O)Nc1sncc1-2 [Compound 37, 5-amino-4-(3-hydroxy-2,6-dimethylphenyl)-2-methyl-4,7-dihydro-6H-8-thia-1,3,4,7,9-pentaazabenzo[cd]cyclopenta[f]azulen-6-one]
798	Cc1nc2c3c(c(N)n(-c4c(C)ccc(O)c4C)c3n1)C(=O)NCc1nc(CO)ccc1-2 [Compound 32, 2-amino-1-(3-hydroxy-2,6-dimethylphenyl)-7-(hydroxymethyl)-11-methyl-4,5-dihydro-1,4,6,10,12-pentaazabenzo[4,5]cyclooctatetraeno[1,2,3-cd]inden-3(1H)-one]
32	CCOc1nccc2c1CNC(=O)c1c(N)n(-c3c(C)ccc(O)c3C)c3nc(C)nc-2c13 [Compound 47, 2-amino-6-ethoxy-1-(3-hydroxy-2,6-dimethylphenyl)-11-methyl-4,5-dihydro-1,4,7,10,12-pentaazabenzo[4,5]cyclooctatetraeno[1,2,3-cd]inden-3(1H)-one]
131	Cc1nc2c3c(c(N)n(-c4c(C)ccc(O)c4C)c3n1)C(=O)NCc1c(C#N)cccc1-2 [Compound 27, 2-amino-1-(3-hydroxy-2,6-dimethylphenyl)-11-methyl-3-oxo-1,3,4,5-tetrahydro-1,4,10,12-tetraazabenzo[4,5]cyclooctatetraeno[1,2,3-cd]indene-6-carbonitrile]
70	Cc1nc2c3c(c(N)n(-c4c(C)ccc(O)c4C)c3n1)C(=O)NCc1nc(C3CC3)ccc1-2 [Compound 28, 2-amino-7-cyclopropyl-1-(3-hydroxy-2,6-dimethylphenyl)-11-methyl-4,5-dihydro-1,4,6,10,12-pentaazabenzo[4,5]cyclooctatetraeno[1,2,3-cd]inden-3(1H)-one]
87.6	Cc1nc2c3c(c(N)n(-c4c(C)ccc(O)c4C)c3n1)C(=O)NCc1c-2ccnc1OCF [Compound 40, 2-amino-6-(fluoromethoxy)-1-(3-hydroxy-2,6-dimethylphenyl)-11-methyl-4,5-dihydro-1,4,7,10,12-pentaazabenzo[4,5]cyclooctatetraeno[1,2,3-cd]inden-3(1H)-one]
55.2	Cc1ccc(O)c(C)c1-n1c(N)c2c3c(c(C)c(C)nc31)-c1nn(C)cc1NC2=O [Compound 44, 5-amino-4-(3-hydroxy-2,6-dimethylphenyl)-1,2,9-trimethyl-7,9-dihydro-3,4,7,9,10-pentaazabenzo[cd]cyclopenta[f]azulen-6(4H)-one]
